Measurements as given in PubChem BioAssay (NCI).
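1) Cells in 96-well plates. 2) Compound, 48 h, 5 concentrations. 3) Linear interpolation between surrounding doses. 4) Unreached endpoint = highest concentration. TGI denotes the concentration required for complete inhibition of growth.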

Experiments:
Assay in all cases: DTP human tumour cell line panel, 48 h
[1] = tested on: NCI-H460 lung
[2] = tested on: IGROV1 ovarian
[3] = tested on: TK-10 renal
[4] = tested on: CAKI-1 renal
[5] = tested on: SK-MEL-5 melanoma
[6] = tested on: OVCAR-8 ovarian
[7] = tested on: HCT-15 colon
[8] = tested on: HCT-116 colon
[9] = tested on: HOP-62 NSCLC
[10] = tested on: MCF7 breast
[11] = tested on: HOP-92 NSCLC
[12] = tested on: ACHN renal
[13] = tested on: COLO 205 colon
[14] = tested on: UO-31 renal
[15] = tested on: MDA-MB-435
[16] = tested on: SN12C renal
[17] = tested on: RXF 393 renal

Row | SMILES | TGI [1] [µM] | TGI [2] [µM] | TGI [3] [µM] | TGI [4] [µM] | TGI [5] [µM] | TGI [6] [µM] | TGI [7] [µM] | TGI [8] [µM] | TGI [9] [µM] | TGI [10] [µM] | TGI [11] [µM] | TGI [12] [µM] | TGI [13] [µM] | TGI [14] [µM] | TGI [15] [µM] | TGI [16] [µM] | TGI [17] [µM]
1 | CC1N=C(c2ccccc2)OC1=O (configuration not stated) | > 100 | > 100 | > 100 | > 100 | > 100 | > 100 | > 100 | > 100 | > 100 | > 100 | > 100 | > 100 | > 100 | > 100 | > 100 | > 100 | 
2 | C[C@]12CC[C@H](O)CC1=CC[C@@H]1[C@@H]2CC[C@]2(C)NC(=O)/C(=C\c3ccccc3)C[C@@H]12 | 68.9 | 33.8 | 83.2 | 73.1 | 25.7 | 47.6 | 37.8 | 37 | 29 | 47.3 |  | 43.1 | 31.9 | 25.8 | 37.8 | 66 | 27.9
3 | CN1N=C(c2ccccc2)c2cc(Cl)ccc2N=C1N/N=C/c1ccc(N(C)C)cc1 | > 100 | > 100 | > 100 | > 100 | > 100 | > 100 | > 100 | > 100 | > 100 | > 100 |  | > 100 | > 100 | > 100 | > 100 | > 100 | > 100
4 | O=C(O)CCC(NC(=O)c1ccc(Oc2nc3ccccc3nc2-c2ccccc2)cc1)C(=O)O (configuration not stated) | > 100 | > 100 | > 100 | > 100 |  | > 100 | > 100 | > 100 | > 100 | > 100 | > 100 | > 100 | > 100 | > 100 | > 100 | > 100 | > 100
5 | CCOC(=O)/C(=C\c1c(C)[nH]c2ccccc12)P(=O)(OCC)OCC | > 100 | > 100 | > 100 | > 100 | > 100 | > 100 | > 100 | > 100 | > 100 | > 100 |  | > 100 | > 100 |  | > 100 | > 100 | > 100
6 | N#Cc1c(N)c2c(c(-c3ccccc3)c1-c1ccccc1)C(=O)N(O)C2=O | > 100 | 75.2 | > 100 | > 100 | > 100 | > 100 | > 100 | 82.4 |  | > 100 | > 100 | > 100 | 52.2 | > 100 | > 100 | > 100 | 44.3
7 | COC1(OC)C2C=CC1C([C@](C)(N)CO)C2 (some centres not stated) | > 100 | > 100 | > 100 | > 100 | > 100 | > 100 |  | > 100 | > 100 | > 100 | > 100 | > 100 | > 100 | > 100 | > 100 | > 100 | > 100
8 | Cc1cc(S(=O)(=O)NC2=NCC(C)(C)CN2)c(S)cc1Cl | > 100 | > 100 | > 100 | > 100 | 33.7 | 71.8 | > 100 | 75.8 | > 100 | > 100 |  | 71.6 | > 100 | 99.8 | 85.1 | > 100 | > 100
9 | CC(C)(C)OC(=O)C1/C(=C/CBr)CN1C(=O)OC(C)(C)C (configuration not stated) | 34.9 | 26.2 | 31.3 | 30.5 | 27.4 | 44.2 | 23.3 | 26.7 | 31.9 | 28.9 | 31.8 | 33 | 6.1 | 33.1 | 29.7 | 27 | 
10 | N#CC(C#N)=Cn1c(=S)[nH]c2ccc([N+](=O)[O-])cc21 | > 100 | > 100 | > 100 | > 100 | > 100 | > 100 |  | > 100 | > 100 | > 100 | > 100 | > 100 | > 100 | > 100 | > 100 | > 100 | > 100
11 | COC(=O)c1cc2c(cc1C(=O)OC)[C@@]1(C)CCCC(C)(C)C1CC2 (some centres not stated) | 43.8 | 31.5 | 39 |  | 35.4 | 74 | 35.3 | 45.8 | 61.6 | 32.7 | 26.2 | 36.4 |  | 35 | > 100 | 35.2 | 23.2
12 | COc1cc2c(cc1O)C(=O)O[C@@H]1CC=C3CCN(C)[C@H]3[C@H]21 |  | > 25 | > 25 | > 25 | > 25 | > 25 | > 25 | > 25 | > 25 | > 25 |  | > 25 |  | > 25 | > 25 | > 25 | > 25
13 | CN1CCN(Cc2ccccc2)CC1CC#N (configuration not stated) | > 100 | > 100 | > 100 | > 100 | > 100 | > 100 | > 100 | > 100 | > 100 | > 100 |  | > 100 | > 100 | > 100 | > 100 | > 100 | > 100
14 | CC(=O)OC(C)c1cc2c(s1)C(=O)c1ccsc1C2=O (configuration not stated) |  | 1.55 | 2.49 | 2.39 | 0.0743 | 0.68 | 0.272 | 0.769 | 0.281 | 1.24 | 1.74 | 0.31 | 2.61 | 0.354 | 0.0301 | 0.355 | 0.496
15 | COc1cc(-c2ccccc2)cn2c1nc1ccccc12 | 49.4 | 55.9 |  | 52.3 | 37.9 | 64.4 | 43.2 | 39.5 | 43.6 | 35.4 | 32 | 49.2 | 39.1 | 32.4 | 43.4 | 46.2 | 34.6
16 | CCOC(=O)c1nc2cc(F)cc(F)c2[nH]c1=O | > 100 | > 100 | > 100 | > 100 | > 100 | > 100 | > 100 | > 100 | > 100 | > 100 | > 100 | > 100 | > 100 | > 100 | > 100 | > 100 | 
17 | O=Cc1ccc(-c2ccc(S(=O)(=O)O)cc2)o1 | > 100 | > 100 | > 100 | > 100 | > 100 | > 100 | > 100 | > 100 |  | > 100 |  | > 100 | > 100 | > 100 | > 100 | > 100 | > 100
18 | O=c1[nH]c(=O)n(C2CC(O)C(COP(=O)(OCC(Cl)(Cl)Cl)OCC(Cl)(Cl)Cl)O2)cc1F (configuration not stated) | > 100 | > 100 | > 100 | > 100 | > 100 | > 100 | > 100 | > 100 | 1.53 | > 100 | > 100 | > 100 | > 100 | > 100 | > 100 | > 100 | 
19 | C=CCN1C(=O)CS/C1=N\NC(=O)CSc1nc2ccccc2c(=O)n1CC | 44.4 | > 100 | > 100 | > 100 | > 100 | > 100 | > 100 | > 100 | > 100 | > 100 |  | > 100 | > 100 | > 100 | > 100 | > 100 | > 100
20 | CCOC(=O)c1ccc(N(CCOS(=O)(=O)c2ccc(C)cc2)CCOS(=O)(=O)c2ccc(C)cc2)cc1 | > 100 | > 100 | > 100 | > 100 | > 100 | > 100 | > 100 | > 100 |  | > 100 | > 100 | > 100 | > 100 | > 100 | > 100 |  | > 100
21 | COC1OC(Cn2cc([N+](=O)[O-])nc2C)C(O)C(O)C1O (configuration not stated) | > 100 | > 100 |  | > 100 | > 100 |  | > 100 | > 100 | > 100 | > 100 | > 100 | > 100 | > 100 | > 100 | > 100 |  | > 100
22 | COc1cccc(CCn2c(N)c(C#N)c3ccc([N+](=O)[O-])cc3c2=O)c1 | > 46.4 | > 31.6 | > 46.4 | > 46.4 | > 100 | > 46.4 | > 31.6 | > 46.4 | > 31.6 | > 31.6 | > 31.6 | > 46.4 | > 100 | > 46.4 | > 100 | > 100 | 
23 | CCN1C/C(=C\c2ccc(Cl)cc2)c2[nH]c(=O)c(C#N)c(-c3ccc(Cl)cc3)c2C1 | > 100 | > 100 | > 100 |  | > 100 |  | > 100 | > 100 | > 100 | > 100 | > 100 | > 100 | > 100 |  | > 100 | > 100 | > 100
24 | C[C@H]1S[C@H](c2c(F)cccc2F)n2c1nc1ccccc12 | > 100 | > 100 | > 100 | > 100 | 45.3 | > 100 | > 100 | > 100 | > 100 | > 100 |  | > 100 | > 100 | > 100 | > 100 | > 100 | > 100
25 | CCOC(=O)C1=NNC(C(=O)c2ccccc2)C1c1ccccc1 (configuration not stated) |  | > 34 | 6.42 | 3.25 | 5.78 | 22 | 5.94 | 7 | 26 | 5.82 | 4.46 | 3.71 | 3.69 | 3.71 | 3.89 | 3.89 | 3.78
26 | COc1cc(OC)nc(-n2c(N)c(C(=O)O)c3ccc([N+](=O)[O-])cc3c2=O)n1 | > 100 | > 100 |  | > 100 | > 100 | > 100 | > 100 | > 100 | > 100 | > 100 |  | > 100 | > 100 | > 100 | > 100 | > 100 | > 100
27 | Nn1c(CCCCCCCCc2n[nH]c(=S)n2N)n[nH]c1=S | > 100 | > 100 |  | > 100 |  | > 100 | > 100 | > 100 | > 100 | > 100 | > 100 | > 100 | > 100 | > 100 | > 100 | > 100 | > 100
28 | O=C1NC(N2CCCCC2)=N/C1=C\c1ccco1 |  | > 100 | > 100 | > 100 | > 100 | > 100 | > 100 | > 100 | > 100 | > 100 | > 100 | > 100 | > 100 | > 100 | > 100 | > 100 | > 100
29 | Cc1ccc(O)c(C(c2cc(C)ccc2O)c2cc([N+](=O)[O-])ccc2O)c1 |  | 24.4 | 34.8 | 24.8 | > 100 | 25.5 | 36.1 | 56.1 | 26.3 | 33.8 | 38.9 | 27.1 | 45.9 | 21.5 | 45.3 | 28.3 | 54
